According to paper PMC12069442 (Frontiers in Pharmacology, 2025):

Assays:
CYP3A4.1 = CYP3A4.1 (Homo sapiens, UniProt P08684); assay: Ziprasidone catalysis by recombinant CYP3A4.1
Description: (§1) Following the incubation, 400 μL of ACN and 20 μL of IS were added to the mixture. The sample was then vortexed and centrifuged, and the resulting supernatant was collected for analysis via LC-MS/MS.

CYP3A4.3 = CYP3A4.3 (Homo sapiens, UniProt P08684, M445T); assay: Ziprasidone catalysis by recombinant CYP3A4.3
Description: as §1

CYP3A4.5 = CYP3A4.5 (Homo sapiens, UniProt P08684, P218R); assay: Ziprasidone catalysis by recombinant CYP3A4.5
Description: as §1

CYP3A4.8 = CYP3A4.8 (Homo sapiens, UniProt P08684, R130Q); assay: Ziprasidone catalysis by recombinant CYP3A4.8
Description: as §1

CYP3A4.9 = CYP3A4.9 (Homo sapiens, UniProt P08684, V170I); assay: Ziprasidone catalysis by recombinant CYP3A4.9
Description: as §1

CYP3A4.10 = CYP3A4.10 (Homo sapiens, UniProt P08684, D174H); assay: Ziprasidone catalysis by recombinant CYP3A4.10
Description: as §1

CYP3A4.12 = CYP3A4.12 (Homo sapiens, UniProt P08684, L373F); assay: Ziprasidone catalysis by recombinant CYP3A4.12
Description: as §1

CYP3A4.13 = CYP3A4.13 (Homo sapiens, UniProt P08684, P416L); assay: Ziprasidone catalysis by recombinant CYP3A4.13
Description: as §1

CYP3A4.14 = CYP3A4.14 (Homo sapiens, UniProt P08684, L15P); assay: Ziprasidone catalysis by recombinant CYP3A4.14
Description: as §1

CYP3A4.15 = CYP3A4.15 (Homo sapiens, UniProt P08684, R162Q); assay: Ziprasidone catalysis by recombinant CYP3A4.15
Description: as §1

CYP3A4.16 = CYP3A4.16 (Homo sapiens, UniProt P08684, T185S); assay: Ziprasidone catalysis by recombinant CYP3A4.16; settings: CYP3A4.16, CL = Vmax/Km
Description: as §1

CYP3A4.18 = CYP3A4.18 (Homo sapiens, UniProt P08684, L293P); assay: Ziprasidone catalysis by recombinant CYP3A4.18
Description: as §1

CYP3A4.19 = CYP3A4.19 (Homo sapiens, UniProt P08684, P467S); assay: Ziprasidone catalysis by recombinant CYP3A4.19
Description: as §1

CYP3A4.23 = CYP3A4.23 (Homo sapiens, UniProt P08684, R162W); assay: Ziprasidone catalysis by recombinant CYP3A4.23
Description: as §1

CYP3A4.24 = CYP3A4.24 (Homo sapiens, UniProt P08684, Q200H); assay: Ziprasidone catalysis by recombinant CYP3A4.24; settings: CYP3A4.24, CL = Vmax/Km
Description: as §1

CYP3A4.28 = CYP3A4.28 (Homo sapiens, UniProt P08684, L22V); assay: Ziprasidone catalysis by recombinant CYP3A4.28
Description: as §1

CYP3A4.31 = CYP3A4.31 (Homo sapiens, UniProt P08684, H324Q); assay: Ziprasidone catalysis by recombinant CYP3A4.31
Description: as §1

CYP3A4.32 = CYP3A4.32 (Homo sapiens, UniProt P08684, I335T); assay: Ziprasidone catalysis by recombinant CYP3A4.32
Description: as §1

CYP3A4.33 = CYP3A4.33 (Homo sapiens, UniProt P08684, A370S); assay: Ziprasidone catalysis by recombinant CYP3A4.33; settings: CYP3A4.33, CL = Vmax/Km
Description: as §1

CYP3A4.34 = CYP3A4.34 (Homo sapiens, UniProt P08684, I427V); assay: Ziprasidone catalysis by recombinant CYP3A4.34; settings: CYP3A4.34, CL = Vmax/Km
Description: as §1

[1] = set-up: method as in Beedham et al., 2003; settings: humans; ref Beedham et al., 2003; cited from earlier work
[2] = Rat pharmacokinetic study of ziprasidone and ziprasidone sulfoxide with resveratrol or quercetin; settings: male, Sprague-Dawley, plasma, po, 15 mg/kg, rats, n=6; for CL/F: CLz/F; for Vd/F: Vz/F; for half-life: t1/2z
Description: To minimize potential confounding effects of hormonal fluctuations, this study exclusively utilized male Sprague-Dawley (SD) rats (340 ± 15 g) obtained from Vital River Laboratories (Beijing, China).
Following a 7-day acclimatization period under controlled conditions (temperature: 20°C–25°C; humidity: 50%–65%; 12h/12 h light/dark cycle), 18 rats were fasted for 12 h (water ad libitum) and randomly divided into three treatment groups (n = 6 per group).
Serial blood samples (50 μL) were collected at predetermined time points (0, 1, 2, 4, 6, 8, 10, 12, 24, and 48 h) and processed with 150 μL acetonitrile and 20 μL midazolam IS (500 ng/mL). After vortex-mixing (2 min) and centrifugation (10,075 × g, 10 min), the supernatant was subjected to LC-MS/MS analysis. […] Calibration curves were established over 1–1,000 ng/mL for both analytes, with samples processed identically to study specimens.
Essential pharmacokinetic parameters were determined using a non-compartmental model through Drug and Statistics (DAS) software version 3.0. For the polymorphism experiment results, one-way ANOVA was performed in GraphPad Prism 8.0, while pharmacokinetic data were assessed using an unpaired t-test, with a p-value below 0.05 deemed statistically significant.

[3] = ziprasidone 15 mg/kg oral + quercetin 50 mg/kg i.g.
[4] = ziprasidone 15 mg/kg oral + resveratrol 50 mg/kg i.g.
[5] = ziprasidone 15 mg/kg oral, control (corn oil)

Sequence of CYP3A4.9 (P08684 whole entry V170I): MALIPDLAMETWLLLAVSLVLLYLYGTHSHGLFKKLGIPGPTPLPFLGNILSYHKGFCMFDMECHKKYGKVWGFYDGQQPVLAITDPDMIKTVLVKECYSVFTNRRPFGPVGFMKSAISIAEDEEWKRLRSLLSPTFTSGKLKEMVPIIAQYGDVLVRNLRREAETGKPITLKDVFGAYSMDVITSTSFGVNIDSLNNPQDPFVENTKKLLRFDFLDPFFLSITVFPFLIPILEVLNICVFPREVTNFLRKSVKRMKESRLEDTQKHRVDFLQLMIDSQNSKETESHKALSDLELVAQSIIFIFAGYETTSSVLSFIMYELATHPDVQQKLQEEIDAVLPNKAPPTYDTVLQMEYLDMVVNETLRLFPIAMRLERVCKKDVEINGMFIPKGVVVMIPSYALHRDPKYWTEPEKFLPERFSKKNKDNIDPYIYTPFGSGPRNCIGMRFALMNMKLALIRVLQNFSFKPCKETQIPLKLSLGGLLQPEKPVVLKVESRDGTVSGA
Sequence of CYP3A4.10 (P08684 whole entry D174H): as the sequence (P08684 whole entry V170I) above, with I170V, D174H counted along it
Sequence of CYP3A4.3 (P08684 whole entry M445T): as the sequence (P08684 whole entry V170I) above, with I170V, M445T counted along it
Sequence of CYP3A4.13 (P08684 whole entry P416L): as the sequence (P08684 whole entry V170I) above, with I170V, P416L counted along it
Sequence of CYP3A4.5 (P08684 whole entry P218R): as the sequence (P08684 whole entry V170I) above, with I170V, P218R counted along it
Sequence of CYP3A4.18 (P08684 whole entry L293P): as the sequence (P08684 whole entry V170I) above, with I170V, L293P counted along it
Sequence of CYP3A4.12 (P08684 whole entry L373F): as the sequence (P08684 whole entry V170I) above, with I170V, L373F counted along it
Sequence of CYP3A4.23 (P08684 whole entry R162W): as the sequence (P08684 whole entry V170I) above, with R162W, I170V counted along it
Sequence of CYP3A4.19 (P08684 whole entry P467S): as the sequence (P08684 whole entry V170I) above, with I170V, P467S counted along it
Sequence of CYP3A4.31 (P08684 whole entry H324Q): as the sequence (P08684 whole entry V170I) above, with I170V, H324Q counted along it
Sequence of CYP3A4.28 (P08684 whole entry L22V): as the sequence (P08684 whole entry V170I) above, with L22V, I170V counted along it
Sequence of CYP3A4.32 (P08684 whole entry I335T): as the sequence (P08684 whole entry V170I) above, with I170V, I335T counted along it
Sequence of CYP3A4.14 (P08684 whole entry L15P): as the sequence (P08684 whole entry V170I) above, with L15P, I170V counted along it
Sequence of CYP3A4.1 (P08684 whole entry): as the sequence (P08684 whole entry V170I) above, with I170V counted along it
Sequence of CYP3A4.15 (P08684 whole entry R162Q): as the sequence (P08684 whole entry V170I) above, with R162Q, I170V counted along it
Sequence of CYP3A4.8 (P08684 whole entry R130Q): as the sequence (P08684 whole entry V170I) above, with R130Q, I170V counted along it
Sequence of CYP3A4.24 (P08684 whole entry Q200H): as the sequence (P08684 whole entry V170I) above, with I170V, Q200H counted along it
Sequence of CYP3A4.34 (P08684 whole entry I427V): as the sequence (P08684 whole entry V170I) above, with I170V, I427V counted along it
Sequence of CYP3A4.33 (P08684 whole entry A370S): as the sequence (P08684 whole entry V170I) above, with I170V, A370S counted along it
Sequence of CYP3A4.16 (P08684 whole entry T185S): as the sequence (P08684 whole entry V170I) above, with I170V, T185S counted along it

- CL (CYP3A4.1; CYP3A4.1, CL = Vmax/Km): 6.07 ± 1.19 µL/min/pmol
- % of CYP3A4.1 (CYP3A4.1; CYP3A4.1, relative clearance): 100.00 ± 19.66%
- CL (CYP3A4.3; CYP3A4.3, CL = Vmax/Km): 9.30 ± 0.85 µL/min/pmol
- % of CYP3A4.1 (CYP3A4.3; CYP3A4.3, relative clearance): 153.26 ± 14.08 %
- CL (CYP3A4.5; CYP3A4.5, CL = Vmax/Km): 4.65 ± 0.52 µL/min/pmol
- % of CYP3A4.1 (CYP3A4.5; CYP3A4.5, relative clearance): 76.73 ± 8.59%
- CL (CYP3A4.8; CYP3A4.8, CL = Vmax/Km): 5.71 ± 0.42 µL/min/pmol
- % of CYP3A4.1 (CYP3A4.8; CYP3A4.8, relative clearance): 94.14 ± 6.86%
- CL (CYP3A4.9; CYP3A4.9, CL = Vmax/Km): 7.92 ± 0.36 µL/min/pmol
- % of CYP3A4.1 (CYP3A4.9; CYP3A4.9, relative clearance): 130.65 ± 6.00%
- CL (CYP3A4.10; CYP3A4.10, CL = Vmax/Km): 4.52 ± 0.35 µL/min/pmol
- % of CYP3A4.1 (CYP3A4.10; CYP3A4.10, relative clearance): 74.60 ± 5.81%
- CL (CYP3A4.12; CYP3A4.12, CL = Vmax/Km): 5.72 ± 0.87 µL/min/pmol
- % of CYP3A4.1 (CYP3A4.12; CYP3A4.12, relative clearance): 94.29 ± 14.33%
- CL (CYP3A4.13; CYP3A4.13, CL = Vmax/Km): 5.60 ± 0.90 µL/min/pmol
- % of CYP3A4.1 (CYP3A4.13; CYP3A4.13, relative clearance): 92.30 ± 14.84%
- CL (CYP3A4.14; CYP3A4.14, CL = Vmax/Km): 6.64 ± 0.48 µL/min/pmol
- % of CYP3A4.1 (CYP3A4.14; CYP3A4.14, relative clearance): 109.41 ± 7.88%
- CL (CYP3A4.15; CYP3A4.15, CL = Vmax/Km): 9.53 ± 1.38 µL/min/pmol
- % of CYP3A4.1 (CYP3A4.15; CYP3A4.15, relative clearance): 157.07 ± 22.67 %
- CL (CYP3A4.16): 6.79 ± 1.26 µL/min/pmol
- CL (CYP3A4.18; CYP3A4.18, CL = Vmax/Km): 6.56 ± 1.12 µL/min/pmol
- % of CYP3A4.1 (CYP3A4.18; CYP3A4.18, relative clearance): 89.27 ± 15.28%
- CL (CYP3A4.19; CYP3A4.19, CL = Vmax/Km): 6.19 ± 0.53 µL/min/pmol
- % of CYP3A4.1 (CYP3A4.19; CYP3A4.19, relative clearance): 84.26 ± 7.20%
- CL (CYP3A4.23; CYP3A4.23, CL = Vmax/Km): 6.11 ± 0.83 µL/min/pmol
- % of CYP3A4.1 (CYP3A4.23; CYP3A4.23, relative clearance): 83.13 ± 11.26%
- CL (CYP3A4.24): 3.46 ± 0.67 µL/min/pmol
- CL (CYP3A4.28; CYP3A4.28, CL = Vmax/Km): 5.69 ± 1.01 µL/min/pmol
- % of CYP3A4.1 (CYP3A4.28; CYP3A4.28, relative clearance): 77.40 ± 13.81%
- CL (CYP3A4.31; CYP3A4.31, CL = Vmax/Km): 4.08 ± 0.83 µL/min/pmol
- % of CYP3A4.1 (CYP3A4.31; CYP3A4.31, relative clearance): 55.46 ± 11.30 %
- CL (CYP3A4.32; CYP3A4.32, CL = Vmax/Km): 7.66 ± 1.55 µL/min/pmol
- % of CYP3A4.1 (CYP3A4.32; CYP3A4.32, relative clearance): 104.25 ± 21.13%
- CL (CYP3A4.33): 14.74 ± 0.74 µL/min/pmol
- CL (CYP3A4.34): 4.65 ± 0.66 µL/min/pmol
- AUC(0-t) [2, 3]: 9390 ng·h/mL
- AUC(0-t) [2, 4]: 6760 ng·h/mL
- AUC(0-t) [2, 5]: 6610 ng·h/mL
- AUC(0-inf) [2, 3]: 9390 ng·h/mL
- AUC(0-inf) [2, 4]: 6760 ng·h/mL
- AUC(0-inf) [2, 5]: 6980 ng·h/mL
- CL/F [2, 3]: 94.2 mL/min/kg
- CL/F [2, 4]: 150 mL/min/kg
- CL/F [2, 5]: 43.8 mL/min/kg
- Cmax [2, 3]: 1620 ng/mL
- Cmax [2, 4]: 1160 ng/mL
- Cmax [2, 5]: 963 ± 367 ng/mL
- Tmax [2, 3]: 4 ± 1.79 h
- Tmax [2, 4]: 4.33 ± 2.66 h
- Tmax [2, 5]: 4 ± 2.19 h
- Vd/F [2, 3]: 33.3 ± 22.1 L/kg
- Vd/F [2, 4]: 56.1 ± 42.7 L/kg
- Vd/F [2, 5]: 24.3 ± 19.1 L/kg
- half-life [2, 3]: 3.79 ± 2.11 h
- half-life [2, 4]: 4.06 ± 1.52 h
- half-life [2, 5]: 8.64 ± 10.8 h
Structure (SMILES): O=C1Cc2cc(CCN3CCN(c4nsc5ccccc45)CC3)c(Cl)cc2N1 [ziprasidone, Ziprasidone]
- administered dose excreted unchanged [1]: less than 5%
